PMC13376213, “Systematic discovery of motif-based interactions of the auxiliary domains of USP family deubiquitinases” (Nature Communications, 2026)
Where two headings read alike, the source gives them in different places. Ends that are not written are not given here.

Key:
[1] = target: T1, USP20 zf-UBP domain (Homo sapiens, UniProt Q9Y2K6); test: FP-monitored affinity measurements, USP20 zf-UBP; type: binding
T1 construct: USP20_UBP; Q9Y2K6; zf-UBP; 99; 6xHis-GST (N, cleaved yes); made in house; host or cells: Escherichia coli BL21-Gold (DE3)
T1 sequence (Q9Y2K6 4-99): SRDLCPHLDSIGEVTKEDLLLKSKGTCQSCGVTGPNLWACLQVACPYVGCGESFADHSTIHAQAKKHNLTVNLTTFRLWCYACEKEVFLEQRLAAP
Method: (§3) The measurements were performed at room temperature in a non-binding black half area 96-well plate (Corning) with a total volume of 50 μL per well. […] All measurements were performed in three technical replicates. […] The saturation curves were fitted to the quadratic equation, and the displacement curves were fitted to a sigmoidal dose-response equation as described previously[68].

[2] = target: T2, USP33 zf-UBP domain (Homo sapiens, UniProt Q8TEY7); test: FP-monitored affinity measurements, USP33 zf-UBP; type: binding; conditions: read-out: KD, USP33 zf-UBP
T2 construct: USP33_UBP; Q8TEY7; zf-UBP; 36; 130; 6xHis-GST (N, cleaved yes); made in house; host or cells: Escherichia coli BL21-Gold (DE3)
T2 sequence (Q8TEY7 with tags, fused parts or gaps): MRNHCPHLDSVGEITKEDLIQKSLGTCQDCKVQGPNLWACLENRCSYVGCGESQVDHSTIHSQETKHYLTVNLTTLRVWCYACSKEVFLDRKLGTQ
Method: as §3

[3] = target: T3, USP20 DUSP2 domain (Homo sapiens, UniProt Q9Y2K6); test: FP-monitored affinity measurements, USP20 DUSP2; type: binding
T3 construct: USP20_DUSP2; Q9Y2K6; DUSP2; 776; 894; 6xHis-GST (N, cleaved yes); made in house; host or cells: Escherichia coli BL21-Gold (DE3)
T3 sequence (Q9Y2K6 with tags, fused parts or gaps): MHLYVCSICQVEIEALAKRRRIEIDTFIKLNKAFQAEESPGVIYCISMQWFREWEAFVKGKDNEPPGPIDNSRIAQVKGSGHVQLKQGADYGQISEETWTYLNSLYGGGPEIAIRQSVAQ
Method: (§1) Proteins were expressed in Escherichia coli (E.coli) BL21-Gold (DE3) bacteria. The cDNAs encoding N-terminal 6-histidine-glutathione S-transferase tagged (6xHis-GST), 6xHis-tagged or GST-tagged protein domains in pETM33, pETM11, pGEX6P1 expression vectors respectively, were obtained from Genescript or kindly provided by MRC-PPU (Suppl. Data 1) The bacteria were transformed with the plasmid and grew at 37 °C in 2YT (5 g/L NaCl, 16 g/L tryptone and 10 g/L yeast extract) supplemented with Kanamycin (30 μg/mL) until reaching an OD600 of 0.7. Protein expression was induced with 0.3 mM isopropyl β-D-1 thiogalactopyranoside (IPTG) for 18 h at 18 °C while shaking. For zinc-finger domains, 50 μM of ZnSO4 was added during expression. The bacterial cultures were pelleted for 15 minutes at 4000 x g at 4 °C and stored at −20 °C until purification. The pellets were resuspended in lysis buffer (1× phosphate-buffered saline (PBS), 0.5 % Triton-X, 5 mM MgCl2, 10 μg/mL lysozyme, cOmplete^TM EDTA-free protease inhibitor cocktail (Roche), 10 μg/mL DNAseI) and incubated for 1 h shaking at 4 °C. […] The supernatant was incubated with glutathione (GSH) Sepharose (Cytiva) or Ni2+ Sepharose (Cytiva) for 1 h at 4 °C while shaking. The beads with the bound protein were washed with 1x PBS and eluted with 10 mM reduced glutathione in 50 mM Tris pH 8.0. For fluorescence polarization experiments, the proteins were not eluted from the beads, and the 6xHis-GST tag was cleaved overnight on GSH Sepharose beads at 4 °C while shaking with PreScission Protease in cleavage buffer (50 mM Tris pH 7.5, 150 mM NaCl, 1 mM DTT). The sample containing the cleaved domain was separated from the tag and protease and buffer-exchanged to 50 mM sodium phosphate buffer pH 7.4 with 1 mM DTT using a PD-10 desalting column (Cytiva). The purity and size of the proteins were analyzed by SDS-PAGE electrophoresis.
(§2) The measurements were performed at room temperature in a non-binding black half area 96-well plate (Corning) with a total volume of 50 μL per well. Peptides were obtained from GeneCust (France) with >95% purity. FITC-labeled peptides (N-terminally FITC-labeled without spacer and C-terminally amidated) were dissolved in dimethyl sulfoxide (DMSO), and unlabeled peptides (N-terminally acetylated and C-terminally amidated) were dissolved in 50 mM phosphate buffer pH 7.4. Saturation measurements were performed using a serial dilution of the protein domains in phosphate buffer (25 μL) and the addition of 10 nM FITC-labeled peptide (in phosphate buffer supplemented with 2 mM DTT) (25 μL). […] All measurements were performed in three technical replicates. The data were analyzed using GraphPad Prism version 9.2.0 for MacOS (GraphPad Software, San Diego, California USA, www.graphpad.com). The saturation curves were fitted to the quadratic equation, and the displacement curves were fitted to a sigmoidal dose-response equation as described previously.

[4] = target: T4, USP33 DUSP2 domain (Homo sapiens, UniProt Q8TEY7); test: FP-monitored affinity measurements, USP33 DUSP2; type: binding
T4 construct: USP33_DUSP2; Q8TEY7; DUSP2; 806; 921; 6xHis-GST (N, cleaved yes); made in house; host or cells: Escherichia coli BL21-Gold (DE3)
T4 sequence (Q8TEY7 with tags, fused parts or gaps): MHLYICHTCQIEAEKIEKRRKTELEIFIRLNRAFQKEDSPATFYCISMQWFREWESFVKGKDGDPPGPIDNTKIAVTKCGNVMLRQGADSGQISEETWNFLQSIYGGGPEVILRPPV
Method: as §1, §2

[5] = target: T4, USP33 DUSP2 domain; test: Peptide SPOT array, USP33 DUSP2; type: binding; conditions: average normalised to the highest intensity (CCDC88B = 100)
Method: (§4) Peptides were synthesized on cellulose membranes with standard Fluoroenylmethylox-ycarbonyl (Fmoc) chemistry using a Multipep automated synthesizer at INTAVIS (Tübingen, Germany) or ordered from JPT (PepSpots). The membranes were activated with methanol for 5 min and washed three times for 5 min with TBST (50 mM Tris, 137 mM NaCl, 2.7 mM KCl, pH 8.0, 0.05% Tween-20). The membranes were incubated with blocking buffer (5% skim milk powder in TBST) for 2 h at room temperature while shaking. The membranes were incubated with the GST-tagged protein diluted at the desired concentration in blocking buffer and incubated overnight at 4 °C while shaking. The membrane was rinsed 3 times with TBST and incubated with HRP-conjugated anti-GST antibody (Cytiva, RPN1236; 1:3000 dilution) in blocking buffer for 1 h at 4 °C while shaking. […] The images were analyzed in Fiji (ImageJ2 version 2.9.0).

[6] = target: T3, USP20 DUSP2 domain; test: Peptide SPOT array, USP20 DUSP2; type: binding; conditions: for Average: peptide SPOT array intensity minus background, mean of 2 replicas; for Average / Normalize to peptide with higher intensity %: sheet S5A; for Normalize to higher intensity (%) / Normalize to peptide with higher intensity %: peptide SPOT array; for Normalize to higher intensity (%): USP20 DUSP2, average normalised to the highest intensity (ARNTL2 = 100); for Normalize to peptide with higher intensity %: average normalized to the peptide with highest intensity (ARNTL2 = 100);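 as to all read-outs here: GST-tagged domain probed overnight at 4 °C on peptides made on cellulose membranes, bound protein detected via HRP-coupled anti-GST antibody, spot intensity from image analysis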
Method: as §4

[7] = tested on: FLAG-USP33; test: IP-MS of FLAG-USP33 and variants vs empty vector; type: cell-based, human; conditions: IP-MS
Method: For transfection, 1x10^6 HEK293 cells were seeded in 10 cm dishes with DMEM, 10% FBS, 1% L-G (without antibiotic) medium, incubated at 37 °C, with 5 % CO2 for 24 h. Cells were transfected with a transfection mix containing […] of Opti-MEM (Thermo Fisher Scientific), 20 μL of PEI stock (1 mg/mL) and […] of the desired cDNA. For co-transfection, 2.5 μg of DNA of each plasmid was used. The mix was vortexed for 15 s and incubated at room temperature for 15–20 min. The transfection mix was added to the dish and gently mixed. Plates were incubated at 37 °C for 36–48 h before harvesting. For USP33 constructs, 5 μM Bortezomib (proteasome inhibitor) was added 4 hours before harvesting the cells.
FLAG fusion proteins were immunoprecipitated from HEK293 cells transfected with plasmids encoding the protein of interest using the anti-FLAG M2 affinity gel from Sigma-Aldrich. Cell pellets were lysed with 100–200 μL/per dish lysis buffer (Pierce RIPA buffer, 1X protease inhibitor (Roche), 50 unit/μL of Benzonase Nuclease) rotating at 4 °C for 30–45 min. […] The cell lysate was clarified by centrifugation at 17,000 x g, at 4 °C for 12 min, and the supernatant was transferred to a clean, pre-chilled low-binding Eppendorf tube. […] The IP samples were centrifuged at 6500 x g at 4 °C for 30 s. The supernatant containing the unbound proteins was transferred to a clean tube. The resin was washed three times with 500 μL of TBS, centrifuged at 6500 x g at 4 °C for 30 s. The bound FLAG fusion protein was eluted with 100 μL of 150 ng/μL 3X FLAG peptide (Sigma) in TBS and incubated in the cold room for 1 h or overnight. The tube was centrifuged at 6500 x g at 4 °C for 30 s; the eluted proteins were transferred to a clean tube. The eluted proteins were prepared for analysis by western blot or Mass Spectrometry.
Immunoprecipitation (IP) was carried out as described above; four technical replicates of each IP condition were performed, and the empty vector was used as a negative control. The eluted protein was processed following the Strap-micro protocol (Protifi). The IP elution containing 1–100 μg protein was 1:1 mixed with 2X lysis buffer (10% SDS, 100 mM TEAB pH 8.5). […] Samples were vortexed, mixed with 165 μL of 100 mM TEAB in 90% methanol, and passed through an S-Trap micro column at 4000 g for 30 s to trap the proteins. The column was washed with 150 μL of 100 mM TEAB in 90% methanol (at 4,000 x g for 30 seconds) three times. The S-Trap column was centrifuged again and transferred to a clean 2 mL tube for digestion with 20 μL of digestion buffer (1 μg trypsin per 10 μg sample in 50 mM TEAB), at 37 °C overnight in a thermomixer without shaking. The digested peptides were eluted with […] of 50 mM TEAB in water, […] of 0.2 % formic acid in water, and […] of 50 % acetonitrile in water, centrifuging at 4000 x g for 1 min each time. The three elutions were pooled in a low-binding tube, placed on dry ice until frozen, dried in a SpeedVac vacuum (Thermo Scientific), and proceeded with the LCMS analysis.
Eluted peptides were resuspended in water supplemented with 0.015% dodecyl maltoside and 0.1% formic acid and were injected on a Vanquish Neo UHPLC System operating in trap and elute mode coupled to an Orbitrap Astral Mass Spectrometer (Thermo Fisher Scientific). […] Eluted peptides were analyzed using data-independent acquisition mode on the mass spectrometer.
Peptides were searched against the Uniprot Swissprot Human database (released on 02/01/2023) supplemented with the USP20 and USP33 mutants using DiaNN (v1.9.0)[62] operating in library-free mode. Data filtering and statistical analysis were carried out in Python (v3.9.0) using the packages pandas, numpy, sklearn, scipy, rpy2, Plotnine, and Plotly and R (v4.4.3) using the package limma.
Protein groups identified with a single peptide or quantified in fewer than three replicates in at least 1 condition were filtered out. […]

[8] = USP20_DUSP2, FP displacement by unlabelled peptide, read-out: KD
[9] = USP33_DUSP2, FP displacement by unlabelled peptide, read-out: KD
[10] = FLAG-USP33-ΔDUSP2 vs EV, comparison bh_2 Sample_Limma_ImpMedInt_USP33_DUSP2_domain/EV
[11] = FLAG-USP33-ΔUBP vs EV, comparison bh_2 Sample_Limma_ImpMedInt_USP33_UBP_domain/EV

| Substance | Kd [3, 8] [µM] | Kd [4, 9] [µM] | Normalize to higher intensity (%) [5] [%] | Average [6] | Normalize to higher intensity (%) [6] [%] | Normalize to peptide with higher intensity % [6] [%] | further results |
| --- | --- | --- | --- | --- | --- | --- | --- |
| EKVKRRLDLDID [CCP110_582-593] |  |  |  |  |  |  | Kd ([1]; read-out: KD, USP20 zf-UBP): > 500 µM; Kd [2]: > 250 µM |
| NBAS |  |  |  |  |  |  | log2_FC [7, 10]: 2.843; log2_FC [7, 11]: 2.886; log2_FC ([7]; FLAG-USP33 UBP mutant vs EV, comparison USP33_E86K_D90R/EV, Limma): 2.804 |
| PYIPMDGEDFQLSPICPE [HIF2A531-548] |  |  |  |  |  |  | Kd ([3]; competitive FP: unlabeled peptide (N-acetylated, C-amidated) against protein with 10 nM FITC-labeled peptide, 50 mM phosphate pH 7.4, room temperature, technical triplicate, read-out: KD, USP20 DUSP2): > 200 µM; Kd ([4]; competitive FP: unlabeled peptide (N-acetylated, C-amidated) against protein with 10 nM FITC-labeled peptide, 50 mM phosphate pH 7.4, room temperature, technical triplicate, read-out: KD, USP33 DUSP2): > 1000 µM |
| QLEEELFQLRQGPAGL [CCDC88B] | 22.4 | 40.1 | 100 | 62.4217 | 34.95 | 34.9541 |  |
| VWA8 |  |  |  |  |  |  | log2_FC [7, 10]: 2.1493; log2_FC [7, 11]: 2.322 |
| YAQSKTQLEVRPV [ROBO1] |  |  |  |  |  |  | Kd ([1]; USP20_UBP, FP displacement by unlabelled peptide, read-out: KD): ~81.6 µM |

More lines, main results first:

| Kd [3, 8] [µM] | Kd [4, 9] [µM] | Normalize to higher intensity (%) [5] [%] | Average [6] | Normalize to higher intensity (%) [6] [%] | Normalize to peptide with higher intensity % [6] [%] | Substance | further results |
| --- | --- | --- | --- | --- | --- | --- | --- |
| 18.7 | 1.5 | 69.9644 | 35.4167 | 19.83 | 19.8322 | IPMDDDFQLRSFDQLS [HIF1A] |  |
| 44.7 | 0.75 | 51.523 | -6.828 | -3.824 | -3.824 | PDVVDDFQLQHRHGPG [MFSD2B] |  |
